Reference: patent US12091425B2 (AMGEN INC., priority 2016, dated 2024)

Tests used:
[1] = test system: OPM-2 human multiple myeloma cell line; assay: Cell Viability Assay (OPM-2 10 FBS); type: cell-based; conditions: OPM-2 cells, CellTiter-Glo
Method in brief: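 ATP-based luminescence (CellTiter-Glo) measured after a 16 h compound treatment of OPM-2 cells seeded at 3000 cells/well in 10% FBS medium. IC50 values derived by 4-parameter logistic fitting of serial dilutions.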

[2] = biological target: T1, Mcl-1/Bim interaction, recombinant human Mcl-1 (171-327) (Homo sapiens, UniProt Q07820); assay: Cell free Mcl-1: Bim Affinity Assay (Mcl-1 HTRF); type: binding
T1 construct: made in house
Method in brief: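 TR-FRET competition assay with biotinylated human Bim peptide (residues 51-76); reaction plates incubated overnight before reading. IC50 values came from duplicate data fitted to a four-parameter sigmoidal competition curve.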

[3] = Homo sapiens, OPM-2, 16 h, 16 h
[4] = TR-FRET, 0.1 nM Mcl-1 (171-327), 0.05 nM biotin-Bim (51-76)
[5] = cell free Mcl-1:Bim TR-FRET, recombinant human Mcl-1 (171-327)
[6] = Homo sapiens, OPM-2, 16 h, 16 h incubation

T1 sequence (Q07820 171-327): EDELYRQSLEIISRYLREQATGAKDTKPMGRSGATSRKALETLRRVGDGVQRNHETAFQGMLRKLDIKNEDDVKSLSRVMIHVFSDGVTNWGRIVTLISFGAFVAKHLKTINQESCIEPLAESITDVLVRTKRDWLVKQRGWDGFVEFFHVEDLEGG

| Compound | IC50 [1, 3] [nM] | IC50 [2, 4] [nM] | IC50 ([1]; 16 h) [nM] | further results |
| --- | --- | --- | --- | --- |
| C[C@@H]1[C@@H](C)C/C=C/[C@H](OCCNc2ccccn2)[C@@H]2CC[C@H]2CN2C[C@@]3(CCCc4cc(Cl)ccc43)COc3ccc(cc32)C(=O)NS1(=O)=O [Example 12, (1S,3′R,6′R,7′S,8′E,11′S,12′R)-6-chloro-11′,12′-dimethyl-7′-(2-(2-pyridinylamino)ethoxy)-3,4-dihydro-2H,15′H-spiro[naphthalene-1,22′-[20]oxa[13]thia[1,14]diazatetracyclo[14.7.2.0˜3,6˜.0˜19,24˜]pentacosa[8,16,18,24]tetraen]-15′-one 13′,13′-dioxide] | 404 | 3.37 |  |  |
| CO[C@H]1/C=C/[C@@H]2CCC[C@H](C2)S(=O)(=O)NC(=O)c2ccc3c(c2)N(C[C@@H]2CC[C@H]21)C[C@@]1(CCCc2cc(Cl)ccc21)CO3 (single isomer, unassigned) [Example 108] |  | 1.13 | 2250 |  |
| CC[C@@H]1C[C@@H](C)/C=C/[C@H](O)[C@@H]2CC[C@H]2CN2C[C@@]3(CCCc4cc(Cl)ccc43)COc3ccc(cc32)C(=O)NS1(=O)=O (single isomer, unassigned) [Example 1023] |  | 0.307 |  | IC50 ([1]; 16 h incubation): 501 nM |
| COCCCN1[C@@H](C)C/C=C/[C@H](O)[C@@H]2CC[C@H]2CN2C[C@@]3(CCCc4cc(Cl)ccc43)COc3ccc(cc32)C(=O)NS1(=O)=O (single isomer, unassigned) [Example 72] | 445 | 0.324 |  |  |
| O=C1NS(=O)(=O)NCC/C=C/[C@H](O)[C@@H]2CC[C@H]2CN2C[C@@]3(CCCc4cc(Cl)ccc43)COc3ccc1cc32 [Example 19, (1S,3′R,6′R,7′S,8′E)-6-chloro-7′-hydroxy-3,4-dihydro-2H,15′H-spiro[naphthalene-1,22′-[20]oxa[13]thia[1,12,14]triazatetracyclo[14.7.2.0^3,6.0^19,24]pentacosa[8,16,18,24]tetraen]-15′-one 13,13′ dioxide] | 1220 | 0.494 |  |  |
| COCCO[C@H]1/C=C/C[C@H](C)[C@@H](CC(F)(F)F)S(=O)(=O)NC(=O)c2ccc3c(c2)N(C[C@@H]2CC[C@H]21)C[C@@]1(CCCc2cc(Cl)ccc21)CO3 (single isomer, unassigned) [Example 669] |  |  | 272 | IC50 [2, 5]: 1.37 nM |
| C[C@H]1C/C=C/[C@H](OCCN2CCOCC2)[C@@H]2CC[C@H]2CN2C[C@@]3(CCCc4cc(Cl)ccc43)COc3ccc(cc32)C(=O)NS(=O)(=O)[C@@H]1CC1CC1 (single isomer, unassigned) [Example 386] |  | 0.63 | 273 |  |
| COCCOCC[C@@H]1[C@@H](C)C/C=C/[C@H](O)[C@@H]2CC[C@H]2CN2C[C@@]3(CCCc4cc(Cl)ccc43)COc3ccc(cc32)C(=O)NS1(=O)=O (single isomer, unassigned) [Example 402] |  | 18.6 | 13600 |  |
| CO[C@H]1C[C@@H](N2[C@@H](C)C/C=C\[C@H](O)[C@@H]3CC[C@H]3CN3C[C@@]4(CCCc5cc(Cl)ccc54)COc4ccc(cc43)C(=O)NS2(=O)=O)C1 [Example 78, (1S,3′R,6′R,7′S,8′Z,11′S)-6-chloro-7′-hydroxy-12′-(cis-3-methoxycyclobutyl)-11′-methyl-3,4-dihydro-2H,15′H-spiro[naphthalene-1,22′-[20]oxa[13]thia[1,12,14]triazatetracyclo[14.7.2.0^3,6.0^19,24]pentacosa[8,16,18,24]tetraen]-15′-one 13′,13′-dioxide] | 587 | 1.45 |  |  |
| CO[C@H]1C/C=C/[C@H](O)[C@@H]2CC[C@H]2CN2C[C@@]3(CCCc4cc(Cl)ccc43)COc3ccc(cc32)C(=O)NS(=O)(=O)[C@@H]1CC1CC1 (single isomer, unassigned) [Example 574] |  |  | 188 | IC50 [2, 5]: 0.393 nM |
| CO[C@@H]1/C=C/[C@@H](C)[C@@H](C)CS(=O)(=O)NC(=O)c2ccc3c(c2)N(C[C@@H]2CC[C@H]21)C[C@@]1(CCCc2cc(Cl)ccc21)CO3 (single isomer, unassigned) [Example 1066] |  | 17.8 |  | IC50 [1, 6]: 15200 nM |
| O=C1NS(=O)(=O)CCC/C=C/[C@@H](OCCN2CCOCC2)[C@@H]2CC[C@H]2CN2C[C@@]3(CCCc4cc(Cl)ccc43)COc3ccc1cc32 [Example 213, (1S,3′R,6′R,7′R,8′E)-6-chloro-7′-(2-(4-morpholinyl)ethoxy)-3,4-dihydro-2H,15′H-spiro[naphthalene-1,22′-[20]oxa[13]thia[1,14]diazatetracyclo[14.7.2.0^3,6.0^19,24]pentacosa [8,16,18,24]tetraen]-15′-one 13′,13′-dioxide] | 835 | 1.08 |  |  |
| CC(C)NC(=O)CO[C@H]1/C=C/C[C@H](C)[C@@H](C)S(=O)(=O)NC(=O)c2ccc3c(c2)N(C[C@@H]2CC[C@H]21)C[C@@]1(CCCc2cc(Cl)ccc21)CO3 [Example 296, 2-(((1S,3′R,6′R,7′S,8′E,11′S,12′R)-6-chloro-11′,12′-dimethyl-13′,13′-dioxido-15′-oxo-3,4-dihydro-2H-spiro[naphthalene-1,22′-[20]oxa[13]thia[1,14]diazatetracyclo[14.7.2.0^3,6.0^19,24]pentacosa [8,16,18,24]tetraen]-7′-yl)oxy)-N-(1-methylethyl)acetamide] | 524 | 0.496 |  |  |
| (1S,3′R,6′R,9′R)-6-chloro-9′-methyl-3,4-dihydro-2H,15′H-spiro[naphthalene-1,22′-[20]oxa[13]thia[1,14]diazatetracyclo[14.7.2.0^3,6.0^19,24]pentacosa [16,18,24]trien]-15′-one 13′,13′-dioxide and (1S,3′R,6′R,9′S)-6-chloro-9′-methyl-3,4-dihydro-2H,15′H-spiro[naphthalene-[20]oxa[13]thia[1,14]diazatetracyclo[14.7.2.0^3,6.0^19,24]pentacosa [16,18,24]trien]-15′-one 13′,13′-dioxide [Example 276] |  | 13.2 | 6410 |  |
| CC[C@@H]1CC/C=C/[C@H](OCC(=O)NCCOC)[C@@H]2CC[C@H]2CN2C[C@@]3(CCCc4cc(Cl)ccc43)COc3ccc(cc32)C(=O)NS1(=O)=O [Example 1001, 2-(((1S,3′R,6′R,7′S,8′E,12′R)-6-chloro-12′-ethyl-13′,13′-dioxido-15′-oxo-3,4-dihydro-2H-spiro[naphthalene-1,22′-[20]oxa[13]thia[1,14]diazatetracyclo[14.7.2.0^3,6.0^19,24]pentacosa [8,16,18,24]tetraen]-7′-yl)oxy)-N-(2-methoxyethyl)acetamide] |  | 0.573 |  | IC50 [1, 6]: 861 nM |
| C[C@@H]1[C@@H](C)C/C=C/[C@H](OC[C@H]2CCCO2)[C@@H]2CC[C@H]2CN2C[C@@]3(CCCc4cc(Cl)ccc43)COc3ccc(cc32)C(=O)NS1(=O)=O [Example 510, (1S,3′R,6′R,7′S,8′E,11′S,12′R)-6-chloro-11′,12′-dimethyl-7′-((2R)-tetrahydro-2-furanylmethoxy)-3,4-dihydro-2H,15′H-spiro[naphthalene-1,22′-[20]oxa[13]thia[1,14]diazatetracyclo[14.7.2.0^3,6.0^19,24]pentacosa [8,16,18,24]tetraen]-15′-one 13′,13′-dioxide] | 587 |  |  | IC50 [2, 5]: 1.25 nM |
| C[C@@H]1[C@@H](C)C/C=C/[C@H](OCC(=O)O)[C@@H]2CC[C@H]2CN2C[C@@]3(CCCc4cc(Cl)ccc43)COc3ccc(cc32)C(=O)NS1(=O)=O [Example 292, (((1S,3′R,6′R,7′S,8′E,11′S,12′R)-6-chloro-11′,12′-dimethyl-13′,13′-dioxido-15′-oxo-3,4-dihydro-2H-spiro[naphthalene-1,22′-[20]oxa[13]thia[1,14]diazatetracyclo[14.7.2.0^3,6.0^19,24]pentacosa [8,16,18,24]tetraen]-7′-yl)oxy)acetic acid] | 1110 | 0.0929 |  |  |
| CO[C@@H]1/C=C/[C@H](O)[C@@H]2CC[C@H]2CN2C[C@@]3(CCCc4cc(Cl)ccc43)COc3ccc(cc32)C(=O)NS(=O)(=O)CC1 [Example 536, (1S,3′R,6′R,7′S,8′E,10′S)-6-chloro-7′-hydroxy-10′-methoxy-3,4-dihydro-2H,15′H-spiro[naphthalene-1,22′-[20]oxa[13]thia[1,14]diazatetracyclo[14.7.2.0^3,6.0^19,24]pentacosa [8,16,18,24]tetraen]-15′-one 13′,13′-dioxide] | 21300 |  |  | IC50 [2, 5]: 1.99 nM |
| NC(=O)OC[C@@H]1CC/C=C/[C@H](O)[C@@H]2CC[C@H]2CN2C[C@@]3(CCCc4cc(Cl)ccc43)COc3ccc(cc32)C(=O)NS1(=O)=O (single isomer, unassigned) [Example 611] | 8490 |  |  | IC50 [2, 5]: 0.275 nM |
| CC12CC=CC(O)C3CCC3CN3CC4(CCCc5cc(Cl)ccc54)COc4ccc(cc43)C(=O)NS(=O)(=O)C1CCC2 (single isomer, unassigned) [Example 133] | 2750 | 2 |  |  |
| CCN1[C@@H](C)CCC[C@H](O)[C@@H]2CC[C@H]2CN2C[C@@]3(CCCc4cc(Cl)ccc43)COc3ccc(cc32)C(=O)NS1(=O)=O [Example 85, (1S,3′R,6′R,7′S,11′S)-6-chloro-12′-ethyl-7′-hydroxy-11′-methyl-3,4-dihydro-2H,15′H-spiro[naphthalene-1,22′-[20]oxa[13]thia[1,12,14]triazatetracyclo[14.7.2.0^3,6.0^19,24]pentacosa[16,18,24]trien]-15′-one 13′,13′-dioxide] | 1910 | 1.88 |  |  |
| O=C1NS(=O)(=O)[C@H](C2CC2)CC/C=C/[C@H](O)[C@@H]2CC[C@H]2CN2C[C@@]3(CCCc4cc(Cl)ccc43)COc3ccc1cc32 (single isomer, unassigned) [Example 148] |  | 0.285 | 458 |  |
